Earlier results in paper PMC9516332 (Frontiers in Oncology, 2022).

Assays:
Settings in all cases: cited from earlier work
[1] = molecular target: panel of 255 wild-type kinases (Homo sapiens, UniProt P17612)
[2] = molecular target: panel of 255 wild-type kinases (Homo sapiens, UniProt O94804)
[3] = molecular target: T1, panel of 255 wild-type kinases (Homo sapiens, UniProt Q12866)
T1 sequence (Q12866 21-999): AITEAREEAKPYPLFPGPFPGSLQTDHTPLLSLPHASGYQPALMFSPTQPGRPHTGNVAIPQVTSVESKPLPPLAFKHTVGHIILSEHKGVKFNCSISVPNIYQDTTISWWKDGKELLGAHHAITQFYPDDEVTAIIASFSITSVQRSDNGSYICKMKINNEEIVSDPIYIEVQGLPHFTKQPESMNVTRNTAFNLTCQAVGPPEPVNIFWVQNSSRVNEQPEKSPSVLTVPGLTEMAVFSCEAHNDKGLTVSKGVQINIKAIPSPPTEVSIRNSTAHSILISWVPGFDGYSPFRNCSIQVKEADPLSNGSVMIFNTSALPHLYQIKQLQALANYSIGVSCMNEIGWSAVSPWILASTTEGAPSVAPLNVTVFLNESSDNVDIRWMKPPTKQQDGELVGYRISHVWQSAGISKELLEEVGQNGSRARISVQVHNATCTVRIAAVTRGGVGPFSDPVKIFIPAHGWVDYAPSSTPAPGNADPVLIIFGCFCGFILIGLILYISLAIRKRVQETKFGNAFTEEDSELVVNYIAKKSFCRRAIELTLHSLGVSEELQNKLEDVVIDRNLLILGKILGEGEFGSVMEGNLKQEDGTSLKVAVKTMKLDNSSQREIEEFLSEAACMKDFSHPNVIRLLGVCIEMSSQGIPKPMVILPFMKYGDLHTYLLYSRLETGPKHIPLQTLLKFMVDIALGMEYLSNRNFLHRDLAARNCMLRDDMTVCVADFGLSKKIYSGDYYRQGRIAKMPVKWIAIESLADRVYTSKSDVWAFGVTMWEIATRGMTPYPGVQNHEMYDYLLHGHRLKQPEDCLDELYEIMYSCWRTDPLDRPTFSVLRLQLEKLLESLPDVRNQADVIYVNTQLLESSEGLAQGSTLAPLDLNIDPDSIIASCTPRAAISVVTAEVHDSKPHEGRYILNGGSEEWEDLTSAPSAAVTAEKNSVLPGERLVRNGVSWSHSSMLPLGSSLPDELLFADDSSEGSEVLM

[4] = molecular target: panel of 255 wild-type kinases (Homo sapiens, UniProt Q00526)
[5] = molecular target: T2, panel of 255 wild-type kinases (Homo sapiens, UniProt O43781)
T2 sequence (O43781 1-588): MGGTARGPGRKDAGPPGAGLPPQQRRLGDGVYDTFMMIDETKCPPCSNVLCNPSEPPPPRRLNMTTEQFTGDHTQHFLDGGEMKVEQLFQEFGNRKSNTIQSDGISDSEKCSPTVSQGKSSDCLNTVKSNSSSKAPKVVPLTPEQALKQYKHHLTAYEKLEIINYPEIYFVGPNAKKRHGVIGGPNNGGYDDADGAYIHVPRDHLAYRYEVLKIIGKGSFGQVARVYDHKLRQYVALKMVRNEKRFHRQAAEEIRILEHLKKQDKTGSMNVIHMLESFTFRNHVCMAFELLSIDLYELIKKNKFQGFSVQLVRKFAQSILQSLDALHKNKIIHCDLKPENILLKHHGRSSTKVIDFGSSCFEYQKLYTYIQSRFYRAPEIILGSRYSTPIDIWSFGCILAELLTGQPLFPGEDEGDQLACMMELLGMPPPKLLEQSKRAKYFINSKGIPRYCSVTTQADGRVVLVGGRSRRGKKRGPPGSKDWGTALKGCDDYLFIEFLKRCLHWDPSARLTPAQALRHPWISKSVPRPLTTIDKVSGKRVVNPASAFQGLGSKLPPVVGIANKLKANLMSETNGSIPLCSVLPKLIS

[6] = molecular target: panel of 255 wild-type kinases (Homo sapiens, UniProt O75116)
[7] = molecular target: T3, panel of 255 wild-type kinases (Homo sapiens, UniProt O00418)
T3 sequence (O00418 1-725): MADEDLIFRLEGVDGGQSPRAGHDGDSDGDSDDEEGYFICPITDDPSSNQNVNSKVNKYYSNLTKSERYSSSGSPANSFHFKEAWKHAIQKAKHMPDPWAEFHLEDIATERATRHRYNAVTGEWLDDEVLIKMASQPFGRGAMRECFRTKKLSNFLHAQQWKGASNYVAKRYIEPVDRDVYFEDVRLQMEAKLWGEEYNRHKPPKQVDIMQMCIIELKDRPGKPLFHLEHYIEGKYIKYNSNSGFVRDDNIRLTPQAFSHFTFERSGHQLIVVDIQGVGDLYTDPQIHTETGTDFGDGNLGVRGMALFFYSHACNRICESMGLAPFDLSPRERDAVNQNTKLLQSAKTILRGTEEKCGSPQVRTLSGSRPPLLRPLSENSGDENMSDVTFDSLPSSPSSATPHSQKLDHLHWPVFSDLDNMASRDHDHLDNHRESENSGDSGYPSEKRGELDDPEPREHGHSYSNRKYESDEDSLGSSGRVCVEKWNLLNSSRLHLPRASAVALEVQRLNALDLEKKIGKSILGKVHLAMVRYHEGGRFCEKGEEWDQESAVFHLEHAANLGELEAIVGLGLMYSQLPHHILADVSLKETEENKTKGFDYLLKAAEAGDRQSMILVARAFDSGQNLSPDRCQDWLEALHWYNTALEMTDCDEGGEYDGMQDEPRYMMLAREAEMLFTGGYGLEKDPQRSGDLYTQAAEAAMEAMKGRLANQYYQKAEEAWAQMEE

## COc1cc(N2CCC(N3CCN(C)CC3)CC2)ccc1Nc1ncc(Cl)c(Nc2ccccc2P(C)(C)=O)n1 [brigatinib]
[1]
  %-inhibition at 1 µmol/L, PKACα: 17%
[2]
  %-inhibition at 1 µmol/L, LOK: 96%
[3]
  %-inhibition, MER: 89%
[4]
  %-inhibition CDK3/CycE1: 0.848%
[5]
  %-inhibition at 1 µmol/L, DYRK3: 3.23%
[6]
  %-inhibition at 1 µmol/L, ROCK2: 30%
[7]
  %-inhibition at 1 µmol/L, EEF2K: 2.53%
